# Assay results taken from patent US6096909A, “Taxoid anti-tumor agents and pharmaceutical compositions thereof” (The Research Foundation of State University of New York, priority 1997, dated 2000).
# Like-named read-outs stand apart in the source and are kept apart here.
# Experiments:
# [1] = tested on: A121 human ovarian, A549 human non-small cell lung, HT-29 human colon and MCF7 human breast cancer cells; test: Cytotoxicity against human cancer cell panel, stated jointly for the four lines
# [2] = tested on: A121 (ovarian carcinoma); test: Tumor cell growth inhibition (SRB), 72 h; type: cell-based; conditions: Homo sapiens, read-out: concentration of compound which inhibit 50% (IC50) of the growth of human tumor cell line
# [3] = tested on: HT-29 (colon carcinoma); test: Tumor cell growth inhibition (SRB), 72 h; type: cell-based; conditions: Homo sapiens, read-out: concentration of compound which inhibit 50% (IC50) of the growth of human tumor cell line
# [4] = tested on: drug-resistant tumors, e.g., adriamycin-resistant breast cancer; conditions: cited from earlier work
# [5] = recent report on clinical trials; cited from earlier work
# [6] = relative to paclitaxel; cited from earlier work
# [7] = tested on: breast and lung cancers; conditions: United States, Europe, and Japan; cited from earlier work
# [8] = tested on: A549 (non-small cell lung carcinoma); test: Tumor cell growth inhibition (SRB), 72 h; type: cell-based; conditions: Homo sapiens, read-out: concentration of compound which inhibit 50% (IC50) of the growth of human tumor cell line
# [9] = tested on: MCF7 (mammary carcinoma); test: Tumor cell growth inhibition (SRB), 72 h; type: cell-based; conditions: Homo sapiens, read-out: concentration of compound which inhibit 50% (IC50) of the growth of human tumor cell line
# [10] = relative to paclitaxel; cited from earlier work; remark: listed apart in the source
# [11] = tested on: human colon carcinoma cells HCT-116; conditions: cited from earlier work
# [12] = tested on: MCF7-R (mammary carcinoma cells 180-fold resistant to adriamycin); test: Tumor cell growth inhibition (SRB), 72 h; type: cell-based, human; conditions: for IC50: Homo sapiens, MCF7R, read-out: concentration of compound which inhibit 50% (IC50) of the growth of human tumor cell line
# [13] = A121 (ovarian), 72 h drug exposure, mean of at least three experiments
# [14] = HT-29 (colon), 72 h drug exposure, mean of at least three experiments
# [15] = A549 (NSCLC), 72 h drug exposure, mean of at least three experiments
# [16] = MCF7 (breast), 72 h drug exposure, mean of at least three experiments
SMILES,"IC50 [2, 13]","IC50 [3, 14]",activity against drug-resistant tumors [4],side effects in clinical trials [5],"IC50 [8, 15]","IC50 [9, 16]","IC50 ([2]; A121, 72 h)","IC50 ([3]; HT-29, 72 h)","IC50 ([9]; MCF7, 72 h)",also measured
CC(=O)O[C@@]12CO[C@@H]1C[C@H](O)[C@@]1(C)C(=O)[C@H](O)C3=C(C)[C@@H](OC(=O)[C@H](O)[C@H](C=Cc4ccccc4)NC(=O)OC(C)(C)C)C[C@@](O)([C@@H](OC(=O)c4ccccc4)[C@H]21)C3(C)C [3'-dephenyl-3'-(2-phenylethenyl)docetaxel],–,–,–,–,–,–,–,–,–,decreased cytotoxicity ([1]; fold decrease): > 20 times
CC(=O)O[C@@]12CO[C@@H]1C[C@H](O)[C@@]1(C)C(=O)[C@H](O)C3=C(C)[C@@H](OC(=O)[C@H](O)[C@@H](NC(=O)OC(C)(C)C)c4ccccc4)C[C@@](O)([C@@H](OC(=O)c4ccccc4)[C@H]21)C3(C)C [Docetaxel],1.2 nM,1.2 nM,only a weak activity,mouth sores and plunge in white blood cells,1 nM,1 nM,–,–,–,"bioavailability compared with paclitaxel [6]: better bioavailability; activity in phase II and III clinical trials [7]: excellent activities, especially against breast and lung cancers; antitumor activity compared with paclitaxel [10]: superior to paclitaxel"
"CC(=O)O[C@H]1C(=O)[C@@]2(C)[C@H]([C@H](OC(=O)c3ccccc3)[C@]3(O)C[C@H](OC(=O)[C@H](O)[C@H](C=C(C)C)NC(=O)c4ccccc4)C(C)=C1C3(C)C)[C@]1(OC(C)=O)CO[C@@H]1C[C@@H]2O [RAH-1, 3'-dephenyl-3'-isobutenylpaclitaxel]",–,–,–,–,–,–,1.4 nM,0.96 nM,0.54 nM,"times better activity than docetaxel ([11]; relative to docetaxel): 7 times; times better activity than paclitaxel ([11]; relative to paclitaxel): 4 times; IC50 ([8]; A549, 72 h): 0.45 nM"
CC(=O)O[C@@]12CO[C@@H]1C[C@H](O)[C@@]1(C)C(=O)[C@H](O)C3=C(C)[C@@H](OC(=O)[C@H](O)[C@H](CC(C)(C)C)NC(=O)OC(C)(C)C)C[C@@](O)([C@@H](OC(=O)c4ccccc4)[C@H]21)C3(C)C [3'-dephenyl-3'-neopentyldocetaxel],–,–,–,–,–,–,–,–,–,cytotoxicity ([1]; in words): virtually not cytotoxic
CC(=O)O[C@H]1C(=O)[C@@]2(C)[C@H]([C@H](OC(=O)c3ccccc3)[C@]3(O)C[C@H](OC(=O)[C@H](O)[C@@H](NC(=O)c4ccccc4)c4ccccc4)C(C)=C1C3(C)C)[C@]1(OC(C)=O)CO[C@@H]1C[C@@H]2O [Paclitaxel],–,–,only a weak activity,"nerve damage, muscle pain or disturbances in heart rhythm",–,–,6.1 nM,3.2 nM,1.7 nM,IC50 ([12]; 72 h): 300 nM
CC=C[C@H](NC(=O)OC(C)(C)C)[C@@H](O)C(=O)O[C@H]1C[C@@]2(O)[C@@H](OC(=O)c3ccccc3)[C@@H]3[C@]4(OC(C)=O)CO[C@@H]4C[C@H](O)[C@@]3(C)C(=O)[C@H](OC(C)=O)C(=C1C)C2(C)C [Taxoid Ia],0.9 nM,0.76 nM,–,–,0.54 nM,0.51 nM,–,–,–,"activity spectrum compared with paclitaxel and docetaxel ([1]; relative to paclitaxel and docetaxel): considerably better activity spectrum; IC50 ([12]; MCF7-R, 72 h drug exposure, mean of at least three experiments): 14 nM; times better activity than docetaxel ([12]; MCF7-R, relative to docetaxel): 17 times; times better activity than paclitaxel ([12]; MCF7-R, relative to paclitaxel): 21 times"
